These results are taken from patent US5498632A, “Esters of acyl carnitines with long-chain aliphatic alcohols and pharmaceutical compositions containing same having antibacterial activity” (Sigma-Tau Industrie Farmaceutiche Riunite S.p.A., priority 1992, dated 1996).

The nature of data set [1]: Assessment of behaviour and mortality in mice (Irwin's method). The arrangement: species or system mouse (male Crl:(CD-1)(ICR)BR). The conditions noted are these: mouse, in vivo; oral, dose 1000, 4 animals/dose. The protocol:
(§1) The assessment of normal behaviour in mice was carried out following S. Irwin's method (Psychopharmacologia, 13, 222 [1968]). This method allows alterations in some behavioural, neurophysiologic and neurovegetative parameters to be detected, which are directly observable by the researcher. The study was conducted using male Crl:(CD-1)(ICR)BR mice (Charles River--Italy) weighing 22-25 g, following oral administration of the compounds suspended in carboxymethylcellulose (0.5% by weight in H2 O) to groups of 4 animals/dose.
(§2) The animals were continously kept under observation for five hours following treatment and twice a day in the subsequent five days. Mortality was also observed during the overall test period.

A further data set has as its system mice. Described as above. The arrangement: species or system mouse (male Crl:(CD-1)(ICR)BR). The conditions noted are these: mouse, in vivo, po. How it is done:
as §1, §2

The test system of data set [2] is Enterobacter aerogenes (UM). Description: MIC in broth, Gram- strains. The class given is cell-based. The conditions noted are these: Klebsiella aerogenes, 18 h, read-out: Minimal Inhibitory Concentration (MIC). Put shortly:
(§3)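 Minimal inhibitory concentrations come from a standard microdilution test in Mueller-Hinton broth. Cells are seeded at 5.0×10^4 CFU/ml final and exposed for 18 h at 37 °C.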

A further data set deals with Escherichia coli (76 F). In words: MIC in broth, Gram- strains. It is filed as cell-based. The conditions noted are these: 18 h, E. coli (76 F), read-out: Minimal Inhibitory Concentration (MIC). Put shortly: as §3
In a further data set the test system is Escherichia coli (92 F). In words: MIC in broth, Gram- strains. It is filed as cell-based. The conditions noted are these: 18 h, E. coli (92 F), read-out: Minimal Inhibitory Concentration (MIC). Put shortly:
as §3

For another data set, the system named is Escherichia coli (R 57B). In words: MIC in broth, Gram- strains. It is filed as cell-based. The note with it: 18 h, E. coli (R 57B), read-out: Minimal Inhibitory Concentration (MIC). Put shortly: as §3
The next data set concerns Klebsiella oxytoca (552). Description: MIC in broth, Gram- strains. It is filed as cell-based. The conditions noted are these: 18 h, read-out: Minimal Inhibitory Concentration (MIC). Put shortly:
as §3

Another data set relates to Proteus mirabilis (32). Description: MIC in broth, Gram- strains. It is filed as cell-based. The conditions noted are these: 18 h, read-out: Minimal Inhibitory Concentration (MIC). Put shortly:
as §3

A further data set relates to Proteus morganii (D.S.). Description: MIC in broth, Gram- strains. The class given is cell-based. The conditions noted are these: Morganella morganii, 18 h, read-out: Minimal Inhibitory Concentration (MIC). The essentials: as §3
The test system of another data set is Proteus vulgaris (UM). Description: MIC in broth, Gram- strains. It is filed as cell-based. The conditions noted are these: 18 h, read-out: Minimal Inhibitory Concentration (MIC). The essentials:
as §3

Data set [3] deals with Pseudomonas aeruginosa (3 E). In words: MIC in broth, Gram- strains. The class given is cell-based. The conditions noted are these: 18 h, read-out: Minimal Inhibitory Concentration (MIC). Put shortly: as §3
A further data set relates to Salmonella typhi (J). Description: MIC in broth, Gram- strains. It is filed as cell-based. The note with it: Salmonella enterica, 18 h, read-out: Minimal Inhibitory Concentration (MIC). Put shortly:
as §3

Data set [4] has as its system Salmonella typhimurium (D.S.). Description: MIC in broth, Gram- strains. It is filed as cell-based. The conditions noted are these: Salmonella enterica, 18 h, read-out: Minimal Inhibitory Concentration (MIC). The essentials:
as §3

The test system of data set [5] is Serratia marcescens (A/1). Description: MIC in broth, Gram- strains. It is filed as cell-based. The note with it: 18 h, read-out: Minimal Inhibitory Concentration (MIC). Put shortly: as §3
Data set [6] concerns H. pylori sessile cells (NCTC 11637). In words: Bactericidal effect against H. pylori sessile cells (attached to HEp-2). It is filed as cell-based, Helicobacter pylori. The text has this: The investigation aimed at evaluating the difference in susceptibility to ST 722 of planktonic and sessile Helicobacter cells, using in the latter case an "in vitro" experimental model, which closely resembled the clinical condition occurring "in vivo" in type-B gastritis. We used HEp-2 cells, an epithelial cell line which harbors the same membrane glycolipid receptors for H. pylori as those harbored by the mucous cells of the antral gastric mucosa (MEGRAUD, F., TRIMOULET, P., LAMOULIATTE, H. and BOYANOVA, L., 1991. Bacterial effect of Amoxicillin on "H. pylori" in an in vitro model using epithelial cells. Antimicrob. Agents Chemoter. 35 (5): 869-872 and LINGWOOD, C. A., LAW, H. and PELLIZANI, A., 1989. Gastric glycerolipid as a receptor for Campylobacter pylori. Lancet i: 238-241). Additionally, the viability of HEp-2 cells (either infected or not) was evaluated following "in vitro" ST 722 treatment. The degree of cytotoxicity was assessed by cytofiuorimetric analysis of Propidium Iodine-stained HEp-2 cells.
An HEp-2 epithelial cell line (a human larynx carcinoma) was used to permit the attachment of Helicobacter cells (sessile cells).
Helicobacter pylori NCTC 11637.
The antibacterial and cytotoxic activity of ST 722 against Helicobacter and HEp-2 cells, respectively, was evaluated by using 3 different ST 722 concentrations, namely 0.1, 1.56 (i.e. the MIC value vs. H. pylori NCTC 11637) and 4 mcg/ml.
A confluent HEp-2 cell culture is prepared, which is obtained after incubating the cell line in tissue culture flasks for 24 hours (37° C., 10% CO2, and ~96% humidity) in Columbia agar medium supplemented with Vitox and 7% defribinated horse serum. The bacteria are first harvested with DMEM medium 10% FCS, and then inoculated onto the HEp-2 cells to obtain a concentration of 5.0×10^6 CFU per flask (i.e. 2.0×10^5 CFU/cm^2).
Bacterial adhesion to the epitelial cells is favored by incubation for 2 hours at 37° C. and 5% CO2. After washing to remove the non attached bacteria. ST 722 is added (5 ml of 3 different concentrations) to the HEp-2 cell culture flasks.
Two additional flasks are added with 5 ml medium lacking ST 722, as Helicobacter growth controls.
At a predetermined time, the flasks were taken, the medium was discarded, and the cells were washed. The cells were harvested with a rubber policeman in 1 ml of phosphate-buffered saline and disrupted with an Ultraturax homogenizer.
After making geometric dilutions of the suspensions (0.1 ml of each dilution inoculated onto each plate in triplicate), the plates were incubated for 7 days in a microaerobic atmosphere, and the plates with 30 to 200 CFU were counted.
The ST 722 activity against Helicobacter planktonic cells was determined in the same experimental conditions in the absence of HEp-2 cells. Finally, the results are expressed as CFU per flask of each sample with respect to the relevant control (i.e. sessile or planktonic cultures).

As usually defined, the mortality is the percentage killed. Read a low mortality as a weak lethal effect. The compound `CCCCCCCCCCCOC(=O)CC(C[N+](C)(C)C)OC(=O)CC(C)C` [ST 722, Isovaleryl-L-Carnitine Undecyl Ester Chloride] gave a mortality at 120 h in data set [1] of 0%. Also, the Symptoms entry in the data set on mice was “salivation, diarrhoea”. In addition, the MIC in data set [2] is 25 µg/mL; in the data set with Escherichia coli (76 F), 25 µg/mL; with Escherichia coli (92 F) it was 25 µg/mL; in the data set with Escherichia coli (R 57B), 25 µg/mL; in the data set with Klebsiella oxytoca (552), 12.5 µg/mL; in the data set with Proteus mirabilis (32), above 100 µg/mL. In addition, the MIC was 100 µg/mL with Proteus morganii (D.S.); 50 µg/mL with Proteus vulgaris (UM); 50 µg/mL in data set [3]; 25 µg/mL in the data set on Salmonella typhi (J); 25 µg/mL in data set [4]; 50 µg/mL in data set [5]. The “Sessile cells (CFU per flask)” value in [6] (3-h contact, 0.1 mcg/ml) was 9.50 × 10^2 CFU per flask; in [6] (3-h contact, 1.56 mcg/ml), 9.50 × 10^2 CFU per flask; in [6] (3-h contact, 4.0 mcg/ml), 4.50 × 10^2 CFU per flask; in data set [6] (24-h contact, 0.1 mcg/ml) it was 4.35 × 10^5 CFU per flask; in [6] (24-h contact, 1.56 mcg/ml), 1.80 × 10^5 CFU per flask; in data set [6] (24-h contact, 4.0 mcg/ml), 1.75 × 10^5 CFU per flask. Further, in data set [6] (Helicobacter pylori, NCTC11637, HEp-2, 3-h contact, 4 mcg/ml, read-out: reduction of number of sessile bacterial cells), the killing at 4 µg/mL is around 50%.
